Results on eight molecules are retold here after ChEMBL document CHEMBL5034019, “Discovery of the Next-Generation Pan-TRK Kinase Inhibitors for the Treatment of Cancer” (J Med Chem, 2021).

Converted amounts (≈) assume the structure as drawn.

The target of data set [1] is High affinity nerve growth factor receptor (Homo sapiens, UniProt P04629).
Description: Inhibition of TrKA (unknown origin) incubated for 120 mins in presence of 33P-ATP
Data set [2] is described as follows: Metabolic stability in mouse liver microsomes assessed as intrinsic clearance at 1 uM by LC-MS/MS analysis. The format is ADME, Microsome. Conditions: read-out: CLH.
Data set [3] in a line: Metabolic stability in human liver microsomes assessed as intrinsic clearance at 1 uM by LC-MS/MS analysis. The data set is classed as ADME, Microsome. The settings on record: read-out: CLH.
Data set [4] can be described thus: Metabolic stability in dog liver microsomes assessed as intrinsic clearance at 1 uM by LC-MS/MS analysis. The format is ADME, Canis lupus familiaris, Microsome. The settings on record: read-out: CLH. (In general: Liver microsomes are vesicles of endoplasmic reticulum, rich in cytochrome P450 enzymes.)
Data set [5] can be described thus: Apparent permeability across apical to basolateral side in human Caco-2 cells incubated for 2 hrs by LC-MS/MS analysis. The format is ADME, cell-based.
A short description of data set [6]: Protein binding in mouse plasma assessed as unbound fraction by LC-MS/MS based equilibrium dialysis method. The data set is classed as ADME, cell-free. In general terms: Equilibrium dialysis compares concentrations on both sides of a semipermeable membrane.
The nature of data set [7]: Protein binding in dog plasma assessed as unbound fraction by LC-MS/MS based equilibrium dialysis method. The format is ADME, cell-free, Canis lupus familiaris.
A short description of data set [8]: Protein binding in human plasma assessed as unbound fraction by LC-MS/MS based equilibrium dialysis method. The data set is classed as ADME, cell-free.
Data set [9] in a line: Protein binding in rat plasma assessed as unbound fraction by LC-MS/MS based equilibrium dialysis method. The format is ADME, cell-free.
Data set [10] in a line: Metabolic stability in rat liver microsomes assessed as intrinsic clearance at 1 uM by LC-MS/MS analysis. Conditions: read-out: CLH. The format is ADME, Microsome.
Data set [11] has as its target Voltage-gated inwardly rectifying potassium channel KCNH2 (Homo sapiens, UniProt Q12809). The data set is described as follows: Inhibition of human ERG.
The subject of data set [12] is BaF3. The data set is described as follows: Cytotoxicity against mouse BaF3 cells transfected with TrKA G623R mutant assessed as reduction in cell viability by MTT assay. The data set is classed as functional, cell-based.
Data set [13] concerns the target ALK tyrosine kinase receptor (Homo sapiens, UniProt Q9UM73).
Description: Inhibition of ALK (unknown origin) incubated for 120 mins in presence of 33P-ATP
The subject of data set [14] is BaF3. Kind of data set: Cytotoxicity against mouse BaF3 cells transfected with SLC34A2-Ros1 assessed as reduction in cell viability by MTT assay. The format is functional, cell-based. (In general: Tetrazolium assays rely on reduction of a dye to a coloured formazan, in cell work by metabolically active cells.)
For data set [15], the system named is BaF3. The data set is described as follows: Cytotoxicity against mouse BaF3 cells transfected with TrKA G595R mutant assessed as reduction in cell viability by MTT assay. The format is functional, cell-based.
Data set [16] addresses High affinity nerve growth factor receptor (Homo sapiens, UniProt P04629, G595R).
The test system of data set [17] is BaF3. Kind of data set: Cytotoxicity against mouse BaF3 cells transfected with TrKA F589L mutant assessed as reduction in cell viability by MTT assay. The data set is classed as functional, cell-based.
Another data set deals with T1, Cytochrome P450 1A2 (Homo sapiens, UniProt P05177).
T1 sequence (P05177 whole entry): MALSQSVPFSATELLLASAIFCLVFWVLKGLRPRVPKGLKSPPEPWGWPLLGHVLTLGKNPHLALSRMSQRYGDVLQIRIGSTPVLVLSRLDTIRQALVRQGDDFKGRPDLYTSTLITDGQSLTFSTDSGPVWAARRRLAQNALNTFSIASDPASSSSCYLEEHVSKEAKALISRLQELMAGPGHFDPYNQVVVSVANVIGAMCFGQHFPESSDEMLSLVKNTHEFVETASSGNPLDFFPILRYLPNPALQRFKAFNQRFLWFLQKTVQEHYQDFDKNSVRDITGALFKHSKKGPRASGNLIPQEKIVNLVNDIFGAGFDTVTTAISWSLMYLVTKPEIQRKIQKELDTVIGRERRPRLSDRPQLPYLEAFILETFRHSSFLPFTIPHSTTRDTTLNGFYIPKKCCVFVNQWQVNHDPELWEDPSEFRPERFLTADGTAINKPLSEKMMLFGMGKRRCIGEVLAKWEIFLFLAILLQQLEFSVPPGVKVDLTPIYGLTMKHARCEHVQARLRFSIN
The data set is described as follows: Inhibition of CYP1A2 in human pooled liver microsomes using phenacetin as substrate in presence of NADPH by LC-MS/MS analysis. The data set is classed as ADME.

Data set [18] relates to BaF3. The data set is described as follows: cells. Conditions: Mus musculus.
Description: Cytotoxicity against mouse BaF3 cells transfected with TrKA assessed as reduction in cell viability by MTT assay
Data set [19] is described as follows: Oral bioavailability in Sprague-Dawley rat at 10 mg/kg measured up to 24 hrs by LC/MS/MS analysis. The format is ADME, organism-based. Conditions: in vivo.
Data set [20] is described as follows: Clearance in Sprague-Dawley rat at 3 mg/kg measured up to 24 hrs by LC/MS/MS analysis. The settings on record: in vivo. The format is ADME, organism-based.
A short description of data set [21]: Tmax in Sprague-Dawley rat at 10 mg/kg, po measured up to 24 hrs by LC-MS analysis. The format is ADME, organism-based. The settings on record: in vivo.
Data set [22] is described as follows: Volume of distribution in Sprague-Dawley rat at 3 mg/kg measured up to 24 hrs by LC-MS/MS analysis. The format is ADME, organism-based. The settings on record: in vivo.
A short description of data set [23]: Half life in Sprague-Dawley rat at 3 mg/kg measured up to 24 hrs by LC-MS/MS analysis. The data set is classed as ADME, organism-based. Conditions: in vivo.
Data set [24] can be described thus: Cmax in Sprague-Dawley rat at 10 mg/kg, po measured up to 24 hrs by LC-MS/MS analysis. The format is ADME, organism-based. Further details: route oral, dose 10 mg/kg, time <=24. The settings on record: in vivo.
The nature of data set [25]: AUC (0 to t) in Sprague-Dawley rat at 3 mg/kg measured up to 24 hrs by LC-MS/MS analysis. The data set is classed as ADME, organism-based. Further details: dose 3 mg/kg, time <=24. The settings on record: in vivo.
Data set [26] is described as follows: AUC (0 to t) in Sprague-Dawley rat at 10 mg/kg, po measured up to 24 hrs by LC-MS/MS analysis. Further details: route oral, dose 10 mg/kg, time <=24. Conditions: in vivo. The format is ADME, organism-based.
Data set [27] in a line: Kinetic solubility of the compound. The data set is classed as physicochemical. The settings on record: read-out: Kinetic_solubility.
The next data set addresses Cytochrome P450 2D6 (Homo sapiens, UniProt P10635). Kind of data set: Inhibition of CYP2D6 in human pooled liver microsomes using dextromethorphan as substrate in presence of NADPH by LC-MS/MS analysis. The data set is classed as ADME.
A further data set concerns the target Cytochrome P450 3A4 (Homo sapiens, UniProt P08684). The data set is described as follows: Inhibition of CYP3A4 in human pooled liver microsomes using midazolam and testosterone as substrate in presence of NADPH by LC-MS/MS analysis. The data set is classed as ADME.
The target in the next data set is Cytochrome P450 2C9 (Homo sapiens, UniProt P11712). Kind of data set: Inhibition of CYP2C9 in human pooled liver microsomes using diclofenac as substrate in presence of NADPH by LC-MS/MS analysis. The data set is classed as ADME.
The target of the next data set is Cytochrome P450 2C19 (Homo sapiens, UniProt P33261). The data set is described as follows: Inhibition of CYP2C19 in human pooled liver microsomes using S-mephenytoin as substrate in presence of NADPH by LC-MS/MS analysis. The format is ADME.
A short description of data set [28]: C0 in Sprague-Dawley rat at 3 mg/kg measured up to 24 hrs by LC/MS/MS analysis. The settings on record: in vivo. The format is ADME, organism-based.

Chain of High affinity nerve growth factor receptor (Homo sapiens, UniProt P04629) (P04629 whole entry): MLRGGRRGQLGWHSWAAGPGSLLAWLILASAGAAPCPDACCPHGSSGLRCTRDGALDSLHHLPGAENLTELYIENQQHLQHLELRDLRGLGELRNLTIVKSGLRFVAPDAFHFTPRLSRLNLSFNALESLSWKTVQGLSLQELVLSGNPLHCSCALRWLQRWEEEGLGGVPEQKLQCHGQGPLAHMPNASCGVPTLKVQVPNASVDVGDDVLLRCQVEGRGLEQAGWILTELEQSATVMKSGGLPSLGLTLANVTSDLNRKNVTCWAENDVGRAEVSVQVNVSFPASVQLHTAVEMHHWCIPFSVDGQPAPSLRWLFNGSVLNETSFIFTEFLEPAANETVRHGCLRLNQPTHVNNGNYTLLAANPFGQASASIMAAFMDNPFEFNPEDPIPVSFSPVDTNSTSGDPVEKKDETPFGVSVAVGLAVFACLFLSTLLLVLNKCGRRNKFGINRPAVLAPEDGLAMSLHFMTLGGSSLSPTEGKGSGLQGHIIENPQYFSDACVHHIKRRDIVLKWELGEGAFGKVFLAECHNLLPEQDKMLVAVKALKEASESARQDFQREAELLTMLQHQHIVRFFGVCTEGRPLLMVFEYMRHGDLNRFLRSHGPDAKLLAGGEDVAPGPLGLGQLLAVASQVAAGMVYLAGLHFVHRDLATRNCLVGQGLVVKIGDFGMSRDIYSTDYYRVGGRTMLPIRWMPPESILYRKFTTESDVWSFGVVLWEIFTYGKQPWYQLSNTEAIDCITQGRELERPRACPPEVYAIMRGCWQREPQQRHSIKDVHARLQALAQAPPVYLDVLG
Chain of Cytochrome P450 2D6 (P10635 whole entry): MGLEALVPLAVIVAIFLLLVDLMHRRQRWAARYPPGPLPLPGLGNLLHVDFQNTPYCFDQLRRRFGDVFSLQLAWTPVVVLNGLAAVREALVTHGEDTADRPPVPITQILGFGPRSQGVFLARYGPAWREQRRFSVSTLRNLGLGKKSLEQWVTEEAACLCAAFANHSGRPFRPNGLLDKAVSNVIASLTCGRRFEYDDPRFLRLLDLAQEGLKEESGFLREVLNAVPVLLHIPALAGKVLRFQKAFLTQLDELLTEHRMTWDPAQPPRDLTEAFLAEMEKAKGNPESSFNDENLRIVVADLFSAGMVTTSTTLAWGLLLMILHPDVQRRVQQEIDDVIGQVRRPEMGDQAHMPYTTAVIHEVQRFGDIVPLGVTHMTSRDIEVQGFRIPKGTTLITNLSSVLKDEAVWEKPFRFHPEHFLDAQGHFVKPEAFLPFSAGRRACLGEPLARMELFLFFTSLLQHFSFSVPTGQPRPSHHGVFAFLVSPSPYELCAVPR
Chain of Cytochrome P450 3A4 (P08684 whole entry): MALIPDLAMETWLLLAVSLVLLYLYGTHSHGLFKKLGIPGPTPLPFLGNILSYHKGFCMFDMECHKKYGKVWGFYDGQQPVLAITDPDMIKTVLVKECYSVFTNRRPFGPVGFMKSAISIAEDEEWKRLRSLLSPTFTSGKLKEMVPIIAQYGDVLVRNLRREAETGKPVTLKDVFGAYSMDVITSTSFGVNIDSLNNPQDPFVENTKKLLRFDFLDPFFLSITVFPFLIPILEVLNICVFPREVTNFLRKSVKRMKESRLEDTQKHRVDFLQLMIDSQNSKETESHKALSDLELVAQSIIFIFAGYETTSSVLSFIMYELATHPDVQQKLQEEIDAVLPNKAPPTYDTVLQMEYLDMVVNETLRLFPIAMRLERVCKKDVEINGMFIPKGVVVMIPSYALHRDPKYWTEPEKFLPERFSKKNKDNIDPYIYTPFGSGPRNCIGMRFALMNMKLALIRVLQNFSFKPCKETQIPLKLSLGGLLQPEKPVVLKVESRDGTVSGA
Chain of Cytochrome P450 2C9 (P11712 whole entry): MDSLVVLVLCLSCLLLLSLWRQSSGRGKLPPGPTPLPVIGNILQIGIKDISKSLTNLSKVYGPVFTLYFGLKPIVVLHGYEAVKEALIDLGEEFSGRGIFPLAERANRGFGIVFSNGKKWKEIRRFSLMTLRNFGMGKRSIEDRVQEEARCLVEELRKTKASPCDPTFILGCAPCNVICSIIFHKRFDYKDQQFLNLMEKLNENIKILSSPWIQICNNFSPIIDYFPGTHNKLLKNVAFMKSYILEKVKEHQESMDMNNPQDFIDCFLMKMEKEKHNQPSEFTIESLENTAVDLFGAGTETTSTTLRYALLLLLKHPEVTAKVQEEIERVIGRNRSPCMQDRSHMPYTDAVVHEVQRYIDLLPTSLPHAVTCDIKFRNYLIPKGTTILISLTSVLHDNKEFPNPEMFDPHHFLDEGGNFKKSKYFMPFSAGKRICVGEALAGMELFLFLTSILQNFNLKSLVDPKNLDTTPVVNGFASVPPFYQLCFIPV
Chain of High affinity nerve growth factor receptor (Homo sapiens, UniProt P04629, G595R) (P04629 33-796 G595R limits assumed): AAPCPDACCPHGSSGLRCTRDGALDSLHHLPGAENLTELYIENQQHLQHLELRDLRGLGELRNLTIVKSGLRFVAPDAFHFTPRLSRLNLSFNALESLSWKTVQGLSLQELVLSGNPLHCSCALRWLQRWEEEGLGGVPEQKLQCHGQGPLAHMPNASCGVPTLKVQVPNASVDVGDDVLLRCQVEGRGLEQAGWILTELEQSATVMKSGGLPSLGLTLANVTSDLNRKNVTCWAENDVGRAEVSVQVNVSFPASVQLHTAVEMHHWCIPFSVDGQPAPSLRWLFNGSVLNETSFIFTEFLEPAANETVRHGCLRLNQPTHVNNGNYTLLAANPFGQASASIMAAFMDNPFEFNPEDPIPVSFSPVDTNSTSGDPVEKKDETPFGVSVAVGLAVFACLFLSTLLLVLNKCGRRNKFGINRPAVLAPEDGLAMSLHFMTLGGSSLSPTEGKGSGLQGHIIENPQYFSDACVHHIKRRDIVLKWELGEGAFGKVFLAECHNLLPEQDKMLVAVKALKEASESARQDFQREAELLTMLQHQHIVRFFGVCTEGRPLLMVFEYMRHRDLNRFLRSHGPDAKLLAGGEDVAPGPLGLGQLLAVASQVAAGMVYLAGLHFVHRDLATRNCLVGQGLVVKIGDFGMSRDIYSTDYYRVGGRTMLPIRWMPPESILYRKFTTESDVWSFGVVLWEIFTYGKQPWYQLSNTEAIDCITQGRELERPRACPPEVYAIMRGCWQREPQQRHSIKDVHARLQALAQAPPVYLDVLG
Chain of Voltage-gated inwardly rectifying potassium channel KCNH2 (Q12809 whole entry): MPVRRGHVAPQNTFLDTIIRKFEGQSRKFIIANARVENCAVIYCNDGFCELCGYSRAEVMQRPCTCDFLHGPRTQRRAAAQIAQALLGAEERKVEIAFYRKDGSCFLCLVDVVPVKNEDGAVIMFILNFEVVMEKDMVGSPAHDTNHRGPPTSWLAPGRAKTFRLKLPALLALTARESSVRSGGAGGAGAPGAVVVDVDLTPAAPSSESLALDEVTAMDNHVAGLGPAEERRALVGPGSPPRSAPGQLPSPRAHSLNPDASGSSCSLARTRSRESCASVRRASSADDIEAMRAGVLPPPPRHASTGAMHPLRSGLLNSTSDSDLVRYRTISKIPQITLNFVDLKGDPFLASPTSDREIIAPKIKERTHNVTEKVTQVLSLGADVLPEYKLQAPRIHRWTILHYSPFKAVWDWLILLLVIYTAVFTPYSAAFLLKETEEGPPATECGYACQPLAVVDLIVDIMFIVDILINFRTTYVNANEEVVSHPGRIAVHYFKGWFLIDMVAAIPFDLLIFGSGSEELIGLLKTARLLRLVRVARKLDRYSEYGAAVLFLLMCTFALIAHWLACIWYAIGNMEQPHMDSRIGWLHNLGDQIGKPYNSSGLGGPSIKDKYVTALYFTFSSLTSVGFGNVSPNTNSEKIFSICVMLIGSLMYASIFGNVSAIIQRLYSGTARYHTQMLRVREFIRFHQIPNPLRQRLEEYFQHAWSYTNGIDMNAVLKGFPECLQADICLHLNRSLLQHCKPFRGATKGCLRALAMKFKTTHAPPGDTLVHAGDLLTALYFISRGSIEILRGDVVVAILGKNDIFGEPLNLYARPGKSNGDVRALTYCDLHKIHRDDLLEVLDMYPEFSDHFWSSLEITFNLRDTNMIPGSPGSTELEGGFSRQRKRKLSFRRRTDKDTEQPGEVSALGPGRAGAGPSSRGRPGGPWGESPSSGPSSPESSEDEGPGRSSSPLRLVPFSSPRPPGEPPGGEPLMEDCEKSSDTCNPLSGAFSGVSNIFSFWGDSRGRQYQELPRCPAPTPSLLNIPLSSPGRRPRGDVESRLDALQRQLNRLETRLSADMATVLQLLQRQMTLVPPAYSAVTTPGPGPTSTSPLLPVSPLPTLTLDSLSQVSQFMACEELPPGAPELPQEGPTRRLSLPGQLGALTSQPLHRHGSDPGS
Chain of Cytochrome P450 2C19 (P33261 whole entry): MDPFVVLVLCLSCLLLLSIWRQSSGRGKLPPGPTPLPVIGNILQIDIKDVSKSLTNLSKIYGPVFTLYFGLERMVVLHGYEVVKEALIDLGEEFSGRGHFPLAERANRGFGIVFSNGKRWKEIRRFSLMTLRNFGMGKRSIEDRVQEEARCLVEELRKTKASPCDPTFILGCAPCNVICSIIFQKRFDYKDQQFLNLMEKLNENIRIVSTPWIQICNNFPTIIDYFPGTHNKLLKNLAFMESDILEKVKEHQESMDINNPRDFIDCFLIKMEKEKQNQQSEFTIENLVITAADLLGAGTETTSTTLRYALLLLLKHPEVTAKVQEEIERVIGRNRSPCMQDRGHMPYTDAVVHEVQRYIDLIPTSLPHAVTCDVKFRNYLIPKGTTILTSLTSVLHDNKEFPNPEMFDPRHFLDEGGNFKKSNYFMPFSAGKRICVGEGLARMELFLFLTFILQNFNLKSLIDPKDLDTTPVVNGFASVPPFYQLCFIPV

What is called IC50 is the concentration needed to halve the response being measured. In turn, `C[C@@H]1COc2ncc(F)cc2C23CC2CCN3c2ccn3ncc(c3n2)C(=O)N1` (some centres undefined) displayed an IC50 in data set [1] of 0.0675 µM.
The molecule `C[C@H]1Nc2ccn3ncc(c3n2)C(=O)N2CCC(CC2)c2ccc(F)cc21` registered an IC50 in [1] of more than 1 µM.
`C[C@H]1Nc2ccn3ncc(c3n2)C(=O)N2CCN(CC2)c2ccc(F)cc21` yielded an IC50 in data set [1] of more than 1 µM.
Take `C[C@H]1NC(=O)c2cnn3ccc(nc23)N[C@H](C)c2cc(F)ccc2NC1=O`: in [1], the IC50 turned out to be 0.846 µM.
One may read the Papp A→B as how fast a substance crosses the layer from the apical side. One may read the fraction unbound as the share of the substance not bound to proteins or other matrix. Take `O=C1NC2(CC2)COc2ncc(F)cc2[C@H]2CNCCN2c2ccn3ncc1c3n2`: the CLint scaled at 1 µM is 342 mL/min/kg in data set [2], 43 mL/min/kg in data set [3], 74 mL/min/kg in data set [4] and 29 mL/min/kg in data set [10]. In addition, in [5], the apical-to-basolateral permeability (Papp A→B) at 2 h amounted to 3.9 ×10⁻⁶ cm/s. Besides, the fraction unbound was found to be 0.28 in data set [6], 0.34 in [7], 0.36 in [8] and 0.3 in data set [9]. In addition, half-maximal inhibition in data set [11] (IC50) was put at 6.7 µM.
In data set [1], `C[C@H]1CNS(=O)(=O)c2cnn3ccc(nc23)N[C@H](C)c2cc(F)ccc2O1` yielded an IC50 of more than 1 µM.
In the case of `O=C1NC2(CC2)COc2ncc(F)cc2[C@H]2CCCCN2c2ccn3ncc1c3n2`, the CLint scaled at 1 µM worked out at 1010 mL/min/kg in data set [2], 242 mL/min/kg in data set [3], 268 mL/min/kg in data set [4] and 980 mL/min/kg in [10]. Also, the IC50 in the data set on BaF3 [12] stood at 0.0058 µM; in data set [13], 0.0185 µM; in data set [1], 0.0032 µM; in the data set with BaF3 [14] it was 0.0126 µM; in the data set on BaF3 [15], 0.0004 µM; in data set [16] it was 0.0021 µM. The apparent permeability from apical to basolateral (Papp A→B) at 2 h in [5] was 16.3 ×10⁻⁶ cm/s. In addition, the fraction unbound is 0.02 in data set [6], 0.03 in [7], 0.02 in [8] and 0.02 in [9].
The term clearance denotes a measure of how efficiently the substance is removed, as volume per time. One may read the Tmax as the time from dosing to the highest level. The term Vd denotes a proportionality between amount in the body and measured concentration, not a real space. What is called half-life is the time in which the quantity being followed falls by half. Low values mean rapid decline, high ones slow decline. A word on the Cmax: it is the maximum level reached in the sampled fluid or tissue. One may read the AUC(0-t) as exposure summed from dosing to a finite time, without extrapolation to infinity. Read a low AUC(0-t) as low exposure. Consider `C[C@H]1CNC(=O)c2cnn3ccc(nc23)N[C@H](C)c2cc(F)ccc2O1` [REPOTRECTINIB], for which the CLint scaled at 1 µM in data set [2] worked out at 982 mL/min/kg; in data set [3] it was 29 mL/min/kg; in data set [4], 21 mL/min/kg; in data set [10], 49 mL/min/kg. Also, the IC50 was 0.0048 µM with BaF3 [12]; 0.0007 µM with BaF3 [17]; more than 50 µM at Cytochrome P450 1A2; 0.0018 µM in the data set with BaF3 [18]; 28.5 µM on Cytochrome P450 2D6; more than 50 µM at Cytochrome P450 3A4. For the same molecule, the IC50 in the data set with BaF3 [14] was 0.0022 µM; in the data set with BaF3 [15], 0.008 µM; on Cytochrome P450 2C9, 6.4 µM; on Cytochrome P450 2C19, 12.3 µM. Moreover, in data set [19], the bioavailability was 119%. In data set [20], this molecule registered a clearance of 9.4 mL/min/kg. For the same molecule, the Tmax in data set [21] worked out at 0.8 h. The Vd in data set [22] stood at 1.1 L/kg. Moreover, the half-life in data set [23] was 2.8 h. In data set [24], the Cmax was 16.9 µM. The values for the AUC(0-t) at 24 h in data set [25] and in data set [26] were 15 µM·h and 59.7 µM·h, respectively. Also, the solubility kinetic in data set [27] stood at 65.8 µM (≈ 23.4 µg/mL). Moreover, the Papp A→B at 2 h in data set [5] came out at 0.9 ×10⁻⁶ cm/s. Further, the free fraction (fraction unbound) in data set [6] stood at 0.05; in data set [7] it was 0.09; in [8] it was 0.05; in [9] it was 0.06. The C0 in data set [28] is 12.87 µM.
